Assay results taken from PMC8808565 (iScience, 2022).
Entries after “also recorded” stand apart in the source; their conditions may differ. No end group written: not given here.

Assays:
[1] = ref Koeninger et al., 2020; cited from earlier work
[2] = biological target: recombinant SARS-CoV-2 spike receptor-binding domain (rRBD); assay: Surface plasmon resonance; details: read-out: KD (abstract, rounded)
[3] = cationic, 41 amino acids; ref Sawai et al., 2001; cited from earlier work
[4] = system: CoV-2 spike-pseudotyped virus infection of ACE2-expressing HEK 293T cells; type: cell-based, SARS-CoV-2 (spike pseudotyped lentivirus); human cells
RBD:ACE2 binding = type: cell-based, SARS-CoV-2 RBD; human ACE2
His-tagged rRBD = type: binding, SARS-CoV-2
[5] = system: VSVG-pseudotyped virus infection of ACE2-expressing HEK 293T cells; type: cell-based
[6] = system: various viruses, including coronaviruses; details: ref Kim et al., 2018; cited from earlier work
RBD = details: bilayer interferometry; ref Wang et al., 2021a; cited from earlier work

GIGDPVTCLKSGAICHPVFCPRRYKQIGTCGLPGTKCCKKP (disulfide (positions not given here)) [hBD-2, Human beta defensin 2]
concentration at which hemolytic activity begins [1]: 70 µM | Kd [2]: ~2000 nM | charge [3]: +6 | effect on CoV-2 spike-mediated infection (in words) [4]: dose-dependently decreased entry of CoV-2 spike-mediated infection; also recorded: inhibited viral entry into ACE2-expressing HEK 293T cells in a dose-dependent manner | effect on RBD:ACE2 binding (in words) (RBD:ACE2 binding): preventing it from binding to ACE2-expressing cells; also recorded: competitively decreased RBD-ACE2 binding; also recorded: reduced RBD:ACE2 binding; also recorded: blocks spike-RBD:ACE2 binding | co-precipitation with His-RBD (in words) (His-tagged rRBD): significant binding of hBD-2 to His-RBD | inhibition of VSVG-pseudotyped virus infection (in words) [5]: not VSVG-mediated infection; also recorded: no inhibition | antiviral effect (in words) [6]: interrupt viral infection of various viruses, including coronaviruses | ratio of hemolytic concentration to IC50 (Hemolytic activity): 25 times

LL-37
binding interaction with RBD (in words) (RBD): strong binding interaction
